Several values for one entry are separate records, joined by “and”; a condition that tells them apart may be missing. Identical values can stand only once.
Assays:
[1] = system: phospho-ERK1/2 in HEK293 cells; test: phospho-ERK1/2 immunofluorescence (nuclear) in HEK293 cells; type: cell-based; details: HEK293, siRNA 200 nM 24 h, then RB5 50 μM 15 min
Protocol: (§1) For Western blot and immunofluorescence analysis, 0.6 × 10^6 HEK293 cells were seeded in 6‐well plates in the presence of DMEM High Glucose GlutaMax (Thermo Fisher Scientific) containing 10% Foetal Bovine Serum (FBS, Thermo Fisher Scientific) and 100 U/ml penicillin/streptomycin (Thermo Fisher Scientific). For Western blot analysis to assess ERK1/2 and phospho‐ERK1/2 levels, cells were serum starved for 24 h and incubated with RB5 50 μM or FBS 20% for 15 min at 37°C. To assess JNK and phospho‐JNK levels, cells were incubated with RB5 50 μM or anisomycin 5 μM for 30 min at 37°C. For immunofluorescence analysis, cells were serum‐starved for 24 h and incubated with 50 μM RB5 or 20% FBS for 15 min at 37°C.
After rinsing in PBS, cells were fixed in 4% PFA and permeabilized with increasing concentrations of methanol (33, 50, 75, and 95% in PBS, 2 min each at room temperature), followed by 100% methanol for 10 min at −20°C. […] The mean fluorescence intensity in the nucleus was calculated automatically by Fiji‐ImageJ software in 8–10 fields per slide. […]

p44 ERK1 and p42 ERK2 = test: Western blot of pERK1/2 and total ERK1/2 in HEK293 cells; type: cell-based; details: serum-starved HEK 293 cells, 50 μM, 15 min
Protocol: as §1
Cells were collected in ice‐cold lysis buffer (20 mM Tris HCl pH 7.5, 150 mM NaCl, 1% Triton, 1 mM EDTA, complete EDTA‐free protease inhibitor cocktail (Roche), 1 mM sodium orthovanadate, 1 mM sodium fluoride, 1 mM b‐glycerophosphate). Protein concentration was determined with the Biorad DC protein assay. Equal amounts of proteins ([…]) were boiled in sample buffer, separated by SDS‐PAGE, and transferred to nitrocellulose membranes (Amersham). […]

p-ERK in dorsal striatum = test: In vivo dose response of striatal pERK; design: species or system mouse; details: 1 h after administration, individual mice
Protocol: For the dose response study, 2‐month‐old CD1 male mice were injected with different doses of RB5 (1, 2.5, 5, 10, and 20 mg/kg, i.p.), whereas the control group was injected with 20 mg/kg (i.p.) of SCR peptide. Mice were perfused 1 h later with 4% PFA. For the time course study, mice were injected i.p. with 20 mg/kg of RB5 and perfused at different time points with 4% PFA (1, 3, 6, and 12 h). The control group was injected i.p. with 20 mg/kg of SCR. Brains were postfixed in 4% PFA for 24 h and cryoprotected overnight in sucrose 30% before immunohistochemistry against phospho‐ERK1/2.
Immunohistochemistry was performed as described in Papale et al ([2016]). […]
For in vivo immunohistochemistry experiments, images were acquired from the dorsal striatum using a Leica DM IRB microscope under a 20× objective. The number of p‐ERK, p‐MSK‐1, p‐ELK, p‐MEK‐1, p‐VG K+, c‐Fos, and DARPP‐32 positive cells was counted in 2–3 consecutive sections per mouse, bilaterally and averaged across the sections using the ImageJ software by a blind investigator to the condition. Estimation of nigral cell loss was assessed by quantifying the number of TH‐immunopositive neurons of the SNc in 360 μm‐spaced sections for each animal.

cleaved caspase-3 = test: Cleaved caspase-3 in dentate gyrus of Tg2576 mice; type: in vivo, mouse; details: for cleaved caspase-3 in dentate gyrus (Fig 5 panel l): individual animals

GRKKRRQRRRPPQGGGGGEPRRTEGVGPGVPGEVEMVKGQPFDV [RB5, six D-amino acids, acetylated N-terminus]
ERK1/2 activation (nuclear phospho-ERK1/2) after KPNA2 or IPO7 downregulation [1]: failed to induce ERK1/2 activation
p44/p42 protein levels (Western blot) (p44 ERK1 and p42 ERK2): without affecting p44/p42 protein levels
p44 ERK1 and p42 ERK2 phosphorylation (Western blot) (p44 ERK1 and p42 ERK2): sustained a strong p44 ERK1 and p42 ERK2 phosphorylation
p-ERK-positive cells in dorsal striatum (p-ERK in dorsal striatum; 10 mg/kg i.p.): significant striatal ERK activation
p-ERK-positive cells in dorsal striatum (p-ERK in dorsal striatum; 20 mg/kg i.p.): significant striatal ERK activation
Preapoptotic phenotype measured by caspase-3 (cleaved caspase-3; Tg2576 mice, 7 months old, 20 mg/kg i.p. for 7 days): significantly reduced the preapoptotic phenotype
cleaved caspase-3 in dentate gyrus (Fig 5 panel l) (cleaved caspase-3; Tg2576 mice): 0.77 and 0.91 and 0.62 and 1.34 and 0.79 and 1.19 and 1.3
cleaved caspase-3 in dentate gyrus (Fig 5 panel l) (cleaved caspase-3; WT mice): 0.76 and 0.9 and 0.39 and 0.92 and 0.68 and 0.62 and 0.56 and 0.58 and 0.59

Reference: publication PMC10630888, “Nuclear ERK1/2 signaling potentiation enhances neuroprotection and cognition via Importinα1/KPNA2” (EMBO Molecular Medicine, 2023)
